According to ChEMBL document CHEMBL1201862, “PubChem BioAssay data set” (2004):
Active and inactive are the calls of the source.

How the values were obtained:
A549 = experiment: viability loss in A549 cells – cell-based, plate reader, cherry-pick samples, cytotoxicity control, dose response (AID 687028); format: functional; conditions: Homo sapiens
[1] = biological target: T1, Low molecular weight phosphotyrosine protein phosphatase (Homo sapiens, UniProt P24666); format: functional; conditions: read-out: IC50_Mean
T1 sequence (P24666 whole entry): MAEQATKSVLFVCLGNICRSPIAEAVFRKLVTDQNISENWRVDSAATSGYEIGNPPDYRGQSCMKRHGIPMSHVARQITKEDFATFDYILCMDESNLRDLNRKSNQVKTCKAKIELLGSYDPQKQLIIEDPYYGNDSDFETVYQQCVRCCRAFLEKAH

[2] = biological target: T1, Low molecular weight phosphotyrosine protein phosphatase; format: functional; conditions: read-out: IC50_Mean; remark: listed apart in the source
[3] = biological target: T2, Replicative DNA helicase DnaB (Mycobacterium tuberculosis, UniProt P9WMR3); experiment: DnaB intein splicing inhibitors, dose response, biochemical, cell-free fluorescence (AID 449749); format: functional
T2 sequence (P9WMR3 whole entry): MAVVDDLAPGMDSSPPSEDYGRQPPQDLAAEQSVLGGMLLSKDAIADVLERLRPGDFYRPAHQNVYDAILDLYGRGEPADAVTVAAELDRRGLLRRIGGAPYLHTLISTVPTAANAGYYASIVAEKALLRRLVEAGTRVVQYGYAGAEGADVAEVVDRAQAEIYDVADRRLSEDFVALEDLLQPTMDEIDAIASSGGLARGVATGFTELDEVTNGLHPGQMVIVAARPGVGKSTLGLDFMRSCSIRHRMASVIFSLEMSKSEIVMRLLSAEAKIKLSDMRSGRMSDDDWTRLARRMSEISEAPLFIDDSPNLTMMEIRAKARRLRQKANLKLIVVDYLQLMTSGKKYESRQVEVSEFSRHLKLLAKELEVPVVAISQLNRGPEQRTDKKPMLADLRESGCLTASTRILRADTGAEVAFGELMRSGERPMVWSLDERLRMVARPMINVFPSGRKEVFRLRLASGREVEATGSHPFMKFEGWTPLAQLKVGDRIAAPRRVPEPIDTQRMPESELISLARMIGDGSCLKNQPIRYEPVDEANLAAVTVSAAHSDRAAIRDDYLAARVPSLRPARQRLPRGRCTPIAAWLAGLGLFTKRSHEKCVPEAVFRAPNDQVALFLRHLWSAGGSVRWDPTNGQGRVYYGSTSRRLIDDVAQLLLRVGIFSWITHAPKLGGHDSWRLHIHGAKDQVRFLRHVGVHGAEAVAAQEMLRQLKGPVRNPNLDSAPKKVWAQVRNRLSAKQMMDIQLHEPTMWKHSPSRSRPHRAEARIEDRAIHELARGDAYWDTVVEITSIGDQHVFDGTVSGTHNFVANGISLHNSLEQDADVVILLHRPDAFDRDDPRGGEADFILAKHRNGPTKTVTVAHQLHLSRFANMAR

[4] = biological target: T3, Ubiquitin-conjugating enzyme E2 N (Homo sapiens, UniProt P61088); format: functional
T3 sequence (P61088 whole entry): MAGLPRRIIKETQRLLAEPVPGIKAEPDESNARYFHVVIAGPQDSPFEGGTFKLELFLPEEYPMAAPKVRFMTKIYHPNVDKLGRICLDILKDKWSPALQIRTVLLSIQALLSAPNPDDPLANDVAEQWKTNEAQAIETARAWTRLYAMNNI

[5] = reduction of Shn3 3'UTR-driven luciferase in osteoblasts – cell-based, Clone20 osteoblasts, firefly luciferase, cherry-picked, dose response (AID 624132); format: functional;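 also: firefly luciferase luminescence from reporter carrying the Shn3 3'UTR in osteoblasts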
Beta Lactamase [6] = biological target: T4, Beta Lactamase (Pseudomonas aeruginosa, UniProt Q932Y6); experiment: BLA reporter interference, concentration series – BLA reporter cells, FRET fluorescence, artefact control for TLR9-MyD88 binding inhibitor project, dose response (AID 588341); format: cell-based;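 also: cell based assay in CHO-K1 cells stably expressing beta-lactamase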
Bcl-2-related protein A1 = biological target: T5, Bcl-2-related protein A1 (Mus musculus, UniProt Q07440); format: functional;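 also: confirmatory dose–response counterscreen on Bfl-1, used to check hits from a UBC13 polyubiquitin inhibitor campaign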
T5 sequence (Q07440 whole entry): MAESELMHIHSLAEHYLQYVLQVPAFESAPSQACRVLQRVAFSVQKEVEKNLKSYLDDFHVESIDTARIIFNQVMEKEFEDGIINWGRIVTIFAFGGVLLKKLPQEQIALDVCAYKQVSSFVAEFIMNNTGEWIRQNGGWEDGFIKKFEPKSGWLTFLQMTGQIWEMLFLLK

[7] = non-specific 3'UTR reporter inhibition in Clone20-Shn3RL – cell-based, Renilla luciferase, cherry-picked, counter-screen for Shn3 inhibitor project, dose response (AID 624133); format: functional
[8] = loss of viability in HepG2 cells – cell-based, CellTiter-Glo, cherry-picked, cytotoxicity control for Shn3 inhibitor project, dose response (AID 624134); format: functional
[9] = biological target: T3, Ubiquitin-conjugating enzyme E2 N; format: functional; remark: listed apart in the source
[10] = Luminescence Cell-Based Dose Retest to Confirm Inhibitors of Cancer Stem Cells. [Related pubchem assays (depositor defined):AID2717, AID2721]; format: functional; conditions: Homo sapiens
[11] = biological target: ATP-binding cassette sub-family B member 6 (Homo sapiens, UniProt Q9NP58); experiment: ABCB6 transporter inhibitors, porphyrin accumulation, dose response, flow cytometry, K562-ABCB6 cells, cherry pick 02 (AID 624487); format: functional; conditions: read-out: EC50_MICROM
Protein RecA = biological target: T6, Protein RecA (Mycobacterium tuberculosis, UniProt P9WHJ3); experiment: Fluorescence Cell-Free Homogeneous Dose Retest to Identify Inhibitors of RecA-Intein Splicing Activity. [Related pubchem assays (depositor defined):AID2097, AID2223, AID489010, AID492950]; format: functional
T6 sequence (P9WHJ3 whole entry): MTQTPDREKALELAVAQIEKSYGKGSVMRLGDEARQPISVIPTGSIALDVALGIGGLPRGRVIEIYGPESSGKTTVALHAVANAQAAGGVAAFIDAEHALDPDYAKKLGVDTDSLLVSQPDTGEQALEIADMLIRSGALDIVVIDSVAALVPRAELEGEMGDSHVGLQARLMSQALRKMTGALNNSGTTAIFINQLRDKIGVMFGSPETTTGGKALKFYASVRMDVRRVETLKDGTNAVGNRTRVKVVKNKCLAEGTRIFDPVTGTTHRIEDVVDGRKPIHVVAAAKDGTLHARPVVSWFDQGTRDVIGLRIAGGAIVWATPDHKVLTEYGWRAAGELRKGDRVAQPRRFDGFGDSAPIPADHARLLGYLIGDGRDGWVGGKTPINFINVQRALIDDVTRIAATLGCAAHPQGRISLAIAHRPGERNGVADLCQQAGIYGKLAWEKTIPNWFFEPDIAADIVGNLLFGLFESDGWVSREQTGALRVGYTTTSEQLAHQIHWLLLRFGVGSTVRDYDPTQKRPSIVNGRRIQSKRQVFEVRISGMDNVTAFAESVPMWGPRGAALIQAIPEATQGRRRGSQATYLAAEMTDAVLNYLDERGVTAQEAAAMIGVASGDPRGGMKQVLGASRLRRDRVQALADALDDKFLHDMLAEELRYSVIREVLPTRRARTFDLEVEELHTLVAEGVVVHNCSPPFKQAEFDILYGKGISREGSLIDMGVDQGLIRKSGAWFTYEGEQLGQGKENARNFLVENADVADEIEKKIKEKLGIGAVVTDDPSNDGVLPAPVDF

CHO = CHO cell viability loss, potency – luminescence, cytotoxicity control for TLR9-MyD88 binding inhibitor project, dose response (AID 588339); format: functional, cell-based, hamster; conditions: Cricetulus griseus;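 also: CHO cells stably coexpressing TLR9 and MyD88 fusions from primary screen; compound exposure lasted 48 hours before viability readout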
[12] = Trypanosoma cruzi growth suppression in host cells – NIH3T3 host cells, beta-gal luminescence, confirmation (AID 2044); format: functional, cell-based;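 also: intracellular parasites grown in NIH/3T3 mouse fibroblasts as host cells; luminescent beta-galactosidase reporter signal from transgenic T. cruzi replicating inside host cells; inhibitors lower the luminescence signal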
[13] = NIH3T3 cell viability loss – ATP luminescence, mouse fibroblasts, counter-screen, dose response (AID 2010); format: functional, cell-based;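 also: cells exposed to compound for about 90 hours before reading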
[14] = biological target: T7, Probable nicotinate-nucleotide adenylyltransferase (Staphylococcus aureus (strain N315), UniProt P65502); format: functional, Staphylococcus aureus subsp. aureus N315;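 as to IC50 Mean: confirmatory dose-response retesting of NadD inhibitor hits first found in an ultra-high-throughput screen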
[15] = biological target: T7, Probable nicotinate-nucleotide adenylyltransferase; format: functional, Staphylococcus aureus subsp. aureus N315; conditions: read-out: IC50_Mean
Beta Lactamase [16] = biological target: T4, Beta Lactamase; experiment: concentration-dependent VIM-2 enzyme inhibition – biochemical, epi-absorbance readout, selective inhibitors, dose response (AID 1919)
Beta-lactamase [17] = biological target: T8, Beta-lactamase (Pseudomonas aeruginosa, UniProt Q79MP6); experiment: inhibition of IMP-1 beta-lactamase activity – biochemical, epi-absorbance, selectivity assay for VIM-2 inhibitor project, dose response (AID 1920)
Beta-lactamase [18] = biological target: T8, Beta-lactamase; experiment: […] counterscreen for selective VIM-2 inhibitors: dose response biochemical high throughput screening assay to identify inhibitors of IMP-1 metallo-beta-lactamase.
Beta-lactamase [19] = biological target: Beta-lactamase (Salmonella choleraesuis (strain SC-B67), UniProt Q5J463); experiment: Epi-absorbance-based counterscreen for selective VIM-2 inhibitors: dose response biochemical high throughput screening assay to identify inhibitors of TEM-1 serine-beta-lactamase.
Beta Lactamase [20] = biological target: T4, Beta Lactamase; experiment: VIM-2 CCF2 hydrolysis inhibition, assay artifact filter – biochemical, FRET readout, CCF2 substrate, artefact control for selective VIM-2 inhibitor project, dose response (AID 1926)
[21] = mouse fibroblast viability loss – cell-based, cherry-pick samples, set 2, cytotoxicity control for T. cruzi growth inhibitor project, dose response (AID 651817); format: functional; conditions: NIH3T3
Albumin = Albumin (Bos taurus, UniProt P02769); experiment: Counterscreen for inhibitors of T-cell receptor (TCR)-CD3 interaction: Fluorescence-based biochemical high throughput dose response assay to identify inhibitors of T-cell receptor (TCR)-CD3 interaction using a TAMRA-labeled BSA probe.; format: functional
Albumin, sequence (P02769 whole entry): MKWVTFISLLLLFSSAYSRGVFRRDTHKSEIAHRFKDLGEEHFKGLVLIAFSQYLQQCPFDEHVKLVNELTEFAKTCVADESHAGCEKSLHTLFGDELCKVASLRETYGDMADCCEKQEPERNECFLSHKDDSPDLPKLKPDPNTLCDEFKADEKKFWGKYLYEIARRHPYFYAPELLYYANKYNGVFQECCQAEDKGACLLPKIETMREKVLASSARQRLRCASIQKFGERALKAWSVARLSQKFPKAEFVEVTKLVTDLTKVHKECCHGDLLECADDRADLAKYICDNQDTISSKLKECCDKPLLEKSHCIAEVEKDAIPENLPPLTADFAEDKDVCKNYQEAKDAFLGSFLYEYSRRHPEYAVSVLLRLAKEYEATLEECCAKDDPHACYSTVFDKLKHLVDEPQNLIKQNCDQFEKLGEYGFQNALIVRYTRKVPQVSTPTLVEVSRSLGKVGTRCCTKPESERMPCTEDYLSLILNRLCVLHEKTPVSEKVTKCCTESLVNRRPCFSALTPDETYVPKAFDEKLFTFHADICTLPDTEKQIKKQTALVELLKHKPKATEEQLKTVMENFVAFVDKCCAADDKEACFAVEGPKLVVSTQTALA

T4 sequence (Q932Y6 whole entry): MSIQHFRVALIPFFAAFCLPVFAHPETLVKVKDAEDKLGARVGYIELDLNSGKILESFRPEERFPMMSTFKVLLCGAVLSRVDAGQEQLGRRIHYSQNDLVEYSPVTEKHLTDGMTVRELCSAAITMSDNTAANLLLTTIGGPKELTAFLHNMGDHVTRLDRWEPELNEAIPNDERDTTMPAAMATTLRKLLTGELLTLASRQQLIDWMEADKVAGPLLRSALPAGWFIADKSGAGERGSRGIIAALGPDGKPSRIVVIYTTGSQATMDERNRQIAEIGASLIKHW
T7 sequence (P65502 whole entry): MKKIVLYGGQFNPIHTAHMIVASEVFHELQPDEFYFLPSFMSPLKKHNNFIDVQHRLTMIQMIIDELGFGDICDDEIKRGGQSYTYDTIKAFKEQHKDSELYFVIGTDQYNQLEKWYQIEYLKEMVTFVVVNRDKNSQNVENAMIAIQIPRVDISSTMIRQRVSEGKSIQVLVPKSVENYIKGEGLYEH
T8 sequence (Q79MP6 whole entry): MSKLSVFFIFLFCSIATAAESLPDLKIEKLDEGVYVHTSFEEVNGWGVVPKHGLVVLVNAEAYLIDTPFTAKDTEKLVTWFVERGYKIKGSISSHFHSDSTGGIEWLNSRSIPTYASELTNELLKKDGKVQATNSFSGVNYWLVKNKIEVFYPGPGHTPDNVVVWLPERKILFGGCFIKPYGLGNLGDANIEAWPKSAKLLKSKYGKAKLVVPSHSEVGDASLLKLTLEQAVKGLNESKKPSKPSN
Beta-lactamase (Salmonella choleraesuis (strain SC-B67), UniProt Q5J463), sequence (Q5J463 whole entry): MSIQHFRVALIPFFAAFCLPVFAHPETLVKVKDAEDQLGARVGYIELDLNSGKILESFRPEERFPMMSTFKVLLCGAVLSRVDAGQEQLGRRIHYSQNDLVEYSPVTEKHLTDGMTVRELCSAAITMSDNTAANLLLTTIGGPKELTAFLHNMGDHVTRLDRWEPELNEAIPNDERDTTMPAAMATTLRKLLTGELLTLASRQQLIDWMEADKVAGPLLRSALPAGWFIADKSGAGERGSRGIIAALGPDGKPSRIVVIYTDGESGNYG
ATP-binding cassette sub-family B member 6, sequence (Q9NP58 whole entry): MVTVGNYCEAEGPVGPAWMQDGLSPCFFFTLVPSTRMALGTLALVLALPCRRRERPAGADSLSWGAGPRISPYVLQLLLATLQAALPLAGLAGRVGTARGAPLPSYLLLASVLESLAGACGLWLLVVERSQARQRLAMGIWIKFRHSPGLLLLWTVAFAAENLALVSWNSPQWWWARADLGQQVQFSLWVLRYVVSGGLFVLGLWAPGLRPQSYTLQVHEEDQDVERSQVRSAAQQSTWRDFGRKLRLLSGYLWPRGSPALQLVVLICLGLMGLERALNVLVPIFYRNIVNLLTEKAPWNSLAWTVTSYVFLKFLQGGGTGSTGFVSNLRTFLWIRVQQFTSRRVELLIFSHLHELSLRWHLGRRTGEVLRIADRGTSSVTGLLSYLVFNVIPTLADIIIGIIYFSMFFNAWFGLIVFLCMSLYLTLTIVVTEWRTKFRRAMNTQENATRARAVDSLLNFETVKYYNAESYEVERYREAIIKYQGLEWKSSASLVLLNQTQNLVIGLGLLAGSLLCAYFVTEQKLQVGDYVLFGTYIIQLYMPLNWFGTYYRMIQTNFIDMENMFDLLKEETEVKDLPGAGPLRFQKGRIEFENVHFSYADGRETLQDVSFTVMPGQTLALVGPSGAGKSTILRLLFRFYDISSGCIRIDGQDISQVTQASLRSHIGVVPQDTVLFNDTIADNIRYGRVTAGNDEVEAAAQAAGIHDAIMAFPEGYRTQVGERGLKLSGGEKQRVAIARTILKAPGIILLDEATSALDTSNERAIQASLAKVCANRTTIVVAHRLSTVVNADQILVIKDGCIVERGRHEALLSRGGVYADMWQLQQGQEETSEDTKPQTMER

C[C@@H]1CCCCO[C@@H](CN(C)C(=O)Cc2ccccc2)[C@H](C)CN([C@H](C)CO)C(=O)c2cc(NS(=O)(=O)c3ccc(Cl)cc3)ccc2O1
AC50 (A549): 31.2 µM (active)

O=C1C(=Cc2cn(-c3ccccc3)nc2-c2ccc(OCc3ccc(Cl)cc3)cc2)SC(=S)N1CCS(=O)(=O)O
IC50 [1]: 7.21 µM (active)
IC50 [2]: 1.35 µM (active)

CC(=O)Nc1ccc(NC(=O)c2nc(S(=O)(=O)Cc3cccc(C)c3)ncc2Cl)cc1
AC50 [3]: 7.54 µM (active)
IC50 [4]: > 20 µM (inactive)
AC50 [5]: 0.528 µM (active)
IC50 (Beta Lactamase [6]): 9.43 µM (active)
IC50 (Bcl-2-related protein A1): > 20 µM (inactive)
AC50 [7]: 6.53 µM (active)
AC50 [8]: 66.6 µM (active)
IC50 [9]: 13 µM (active)
AC50 [10]: 2.47 µM (active)
EC50 [11]: 17.8 µM (active)
EC50 (Protein RecA): 5.24 µM (active)
IC50 (CHO): 3.54 µM (active)

COc1ccc(-c2cc(C(=O)Nc3cccc(S(=O)(=O)NCc4ccco4)c3)c3ccccc3n2)cc1OC
EC50 [12]: 1.64 µM (active)
EC50 [13]: > 60 µM (not active)
IC50 [14]: 13.8 µM (active)
IC50 [15]: 25.3 µM (active)

O=C(C1=C(O)C(=O)N(Cc2cccnc2)C1c1ccccn1)c1ccc(F)cc1 (stereo unspecified)
IC50 (Beta Lactamase [16]): 2.42 µM (active)
IC50 (Beta-lactamase [17]): > 59.6 µM (inactive)
IC50 (Beta-lactamase [18]): > 59.6 µM (inactive)
IC50 (Beta-lactamase [19]): > 59.6 µM (inactive)
IC50 (Beta Lactamase [20]): 0.941 µM (active)

C[C@@H]1CN([C@H](C)CO)C(=O)Cc2cc(NS(=O)(=O)c3ccc(Cl)cc3)ccc2O[C@H]1CN(C)S(=O)(=O)c1ccc(Cl)cc1
AC50 [21]: 16.9 µM (active)

CCc1ccc(NC(=O)NNC(=O)c2ccc3ccccc3c2O)cc1
IC50 (Albumin): > 94.1 µM (inactive)
